These results are taken from patent US9458138B1, “Pyrrole compounds as granzyme B inhibitors” (viDA Therapeutics Inc., priority 2014, dated 2016).

Test [1] has as its target T1, GzmB (Homo sapiens, UniProt P10144). Put plainly: Inhibition of Cell Detachment by GzmB Assay (Example D7). The test is classed as cell-based. The note with it: 50 uM inhibitor; 100 nM GzmB; HDFa primary human fibroblasts; 7 hours; MTS absorbance 490 nm; read-out: Percent Inhibition of cell detachment at 50 uM. Here is the method: HDFa primary human fibroblasts were plated at 10 k/well in 200 ul, approximately 20 hrs before treatment. The next day, controls and 100 nM GzmB (recombinant, human) plus or minus inhibitor treatments were prepared in serum-free media. GzmB and inhibitor were incubated for 20 minutes at RT before adding to cells. Before addition, media and serum was removed from the cells and the cells were washed with PBS (1×), using pipettes to prevent disturbing the cells. Treatment preparations (100 ul) were added to the wells and incubated for 7 hours in a tissue culture incubator. After 7 hours, media and treatments were removed and the cells were washed with PBS (1×) to removed detached cells, using pipettes only. Phase pictures were taken then the PBS was removed and replaced with 100 uL of serum-free media and 20 uL of MTS and the cells were allowed to incubate for 3 hours in a cell culture incubator. After 3 hours the absorbance was read at 490 nm and a percent inhibition value for the treatments with inhibitors was determined from the control wells.

Test [2] addresses T1, GzmB. In words: Inhibition of Fibronectin Cleavage by GzmB (Example D8). It is filed as biochemical. The note with it: 20 nM granzyme B, Hilyte Fluor 488 labeled Fibronectin, 30° C.; for inhibition at 0.62 µM: 0.62 uM inhibitor, read-out: Percent Inhibition at Inhibitor Concentration 0.62 uM; for inhibition at 5.56 µM: 5.56 uM inhibitor, read-out: Percent Inhibition at Inhibitor Concentration 5.56 uM; for inhibition at 50 µM: 50 uM inhibitor, read-out: Percent Inhibition at Inhibitor Concentration 50 uM. Here is the method:
Black, 96 well high-binding assay plates (Griener Bio-one) were treated overnight at 4° C. with 40 uL of 8 ug/mL Hilyte Fluor 488 labeled Fibronectin (Cytoskeleton, Inc). After fibronectin coating, plates were washed 3 times in buffer (20 mM Tris-HCl, pH 7.4, 20 mM NaCl) then once with granzyme B assay buffer (50 mM HEPES, pH 7.5, 0.1% CHAPS). After washing, 50 uL of granzyme B assay buffer was added to each fibronectin-coated well. In a separate non-binding 96 well assay plate 5 uL of 20× inhibitor serial dilution stocks were added to 45 uL of 2.22× GzmB mix to establish inhibition (enzyme/inhibitor mixes were all prepared in granzyme B assay buffer and were incubated first at room temperature for 20 minutes, then at 30° C. for another 10 minutes). After incubation, 50 uL of this 2× enzyme/inhibitor mix was added to the corresponding coated well to initiate fibronectin cleavage (20 nM final granzyme B concentration, 8-point inhibitor dilution series starting at 50 uM). The assay was conducted at 30° C. in the TECAN plate reader (TECAN INFINITE® M1000 Pro), which was programmed to monitor the kinetic fluorescence polarization signal (filter set Ex/Em 470 nm/527 nm) with readings taken every minute, for 1 hour. Proteolytic activity was evaluated as the rate of fluorescence enhancement in the parallel emission over the linear range of the reaction. % Inhibition values were calculated from assay controls and the resulting date is shown in Table 7.

T1 sequence (P10144 21-247): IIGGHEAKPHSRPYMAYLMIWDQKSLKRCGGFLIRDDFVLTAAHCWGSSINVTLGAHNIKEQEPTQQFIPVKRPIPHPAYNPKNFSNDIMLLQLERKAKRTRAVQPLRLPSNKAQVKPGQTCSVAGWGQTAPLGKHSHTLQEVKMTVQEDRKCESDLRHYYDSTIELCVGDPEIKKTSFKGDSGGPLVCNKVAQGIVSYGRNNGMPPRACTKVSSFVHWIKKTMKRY

As to `CC(C)C(NC(=O)CCC(=O)O)c1ccc(C(=O)NCC(=O)NCc2nn[nH]n2)[nH]1` (racemic) [Compound C3, 3-{[2-methyl-1-[5-({[(2H-1,2,3,4-tetrazol-5-ylmethyl)carbamoyl]methyl}carbamoyl)-1H-pyrrol-2-yl]propyl]carbamoyl}propanoic acid], on GzmB [1], the inhibition at 50 µM worked out at 91%.
For the molecule `CC(C)C(NC(=O)CCC(=O)O)c1ccc(C(=O)N2CCC[C@H]2C(=O)NCc2nn[nH]n2)[nH]1` (mixture of isomers) [Compound C4, 3-{[2-methyl-1-{5-[(2S)-2-[(2H-1,2,3,4-tetrazol-5-ylmethyl)carbamoyl]pyrrolidine-1-carbonyl]-1H-pyrrol-2-yl}propyl]carbamoyl}propanoic acid], on GzmB [2], the inhibition at 0.62 µM was 28%, the inhibition at 5.56 µM came to 56% and the inhibition at 50 µM was 78%.
On to `O=C(O)CCC(=O)NC(c1ccc(C(=O)N2C[C@@H](O)C[C@H]2C(=O)NCc2nn[nH]n2)[nH]1)C1CCCC1` (stereo partly drawn) [Compound C8, 3-{[cyclopentyl({5-[(2S,4S)-4-hydroxy-2-[(2H-1,2,3,4-tetrazol-5-ylmethyl)carbamoyl]pyrrolidine-1-carbonyl]-1H-pyrrol-2-yl})methyl]carbamoyl}propanoic acid], for which, on GzmB [2], the inhibition at 0.62 µM is 63%, the inhibition at 5.56 µM came to 83% and the inhibition at 50 µM was determined as 94%.
